Laboratory results taken from patent US20190117586A1, “METHODS OF PREVENTING OR TREATING PARKINSON'S DISEASE BY THE FARNESYLATION OF PARIS” (The Johns Hopkins University, priority 2016, published 2019).

Columns and labels:
PGC-1α = PGC-1α levels in SH-SY5Y cells by immunoblot; format: cell-based; conditions: FIG. 3H
Method: The 9 compounds that activate the PGC-1α promoter in the presence of PARIS were evaluated to determine which compounds induce PGC-1α levels in SH-SY5Y cells (FIGS. 2A and 2B). […] The mRNA level of PGC-1α target genes including copper/zinc superoxide dismutase (SOD1), manganese SOD (SOD2), glutathione peroxidase (GPx1), catalase (CAT), nuclear respiratory factor-1 (NRF-1), mitochondrial transcription factor A (TFAM), mitochondrial uncoupling proteins (UCP2 and UCP3), and the oxidative phosphorylation regulators, ATP5b, cytochrome C (CytC) and cytochrome C oxidase (COX II and IV) were determined by real-time quantitative RT-PCR (qRT-PCR) (FIG. 2C).
(§1) Geraniol or geranylgeraniol have no effect on PGC-1α levels (FIG. 3H).

PARIS = PARIS farnesylation in SH-SY5Y cells transfected with Flag-tagged PARIS (immunoprecipitation); format: cell-based; conditions: PARIS overexpression, farnesol
Method: as §1
To confirm that farnesylation of PARIS requires FTase, siRNA-FTase α knockdown or FTI-277 inhibition of FTase in the setting of PARIS overexpression was performed (FIG. 4C). […] To ascertain whether the farnesylation of PARIS affects the DNA binding activity of PARIS on the IRS motif of the PGC-1α promoter, a chromatin immunoprecipitation assay (ChIP) was performed from SH-SY5Y transfected with GFP-tagged PARIS WT or GFP-tagged PARIS C631S. […] To examine the possibility that the farnesylation of PARIS alters its subcellular distribution, subcellular fractionation was used to monitor the levels of PARIS in cytosolic, membrane, soluble nuclear, and chromatin-bound nuclear fractions by immunoblot analysis (FIG. 4F).

FTase = FTase (Homo sapiens, UniProt P49354+P49356); test: In vitro farnesylation of recombinant GST-PARIS by FTase and FPP; format: biochemical
Method: Next, a biotechnological approach to confirm that PARIS is prenylated was applied (Nguyen et al., 2009). The total cell lysate of SH-SY5Y cells transfected with Flag-tagged PARIS was incubated with a biotin-functionalized geranyl pyrophosphate analogue (Biotin-GPP) and the recombinant FTase W102T/Y154T mutant, which was engineered to utilize Biotin-GPP as a lipid donor (Nguyen et al., 2009). […] In addition, the immunoprecipitate of Flag-tagged PARIS from SH-SY5Y cells transfected with either siRNA-control or siRNA-FTase α was mixed with NBD-GPP, a […] fluorescent analog of FPP for an in vitro farnesylation assay (IVF). […] To determine whether FTase directly farnesylates PARIS, recombinant GST-PARIS was incubated with FTase and FPP in the presence and absence of the FTase inhibitor, FTI-277. GST-PARIS undergoes farnesylation by FTase, which is abolished by the addition of FTase inhibitor, FTI-277 (FIG. 3E).
The in vitro farnesylation assay (IVF) was performed as described (Nguyen et al., 2009; Nguyen et al., 2010; Wu et al., 2007). Briefly, for metabolic global farnesylation, 5 μCi [^3H]-farnesyl pyrophosphate (FPP) (NET1042001MC, PerkinElmer) was treated into SH-SY5Y cells and immunoprecipitant was monitored by immunoblot analysis with Farnesyl antibody. […] For fluorescence-based IVF, immunoprecipitated Flag-tagged PARIS was incubated for 20 min with NBD-GPP (LI-014, Jena Bioscience). […]

Row | farnesylation of GST-PARIS by FTase (FTase) | Structure (SMILES) | PGC-1α levels, specificity test with compounds of similar structure (PGC-1α) | farnesylation of PARIS by farnesol under FTase inhibition (PARIS)
1 | – | CC(C)=CCC/C(C)=C/CO [Geraniol] | no effect | –
2 | abolished | COC(=O)[C@H](CCSC)NC(=O)c1ccc(NC[C@@H](N)CS)cc1-c1ccccc1 [FTI-277, reference compound] | – | strongly prevents farnesylation of PARIS by farnesol
3 | – | CC(C)=CCC/C(C)=C/CC/C(C)=C/CC/C(C)=C/CO [geranylgeraniol] | no effect | –
